{"source": "patent US20260232865A1", "about": "“DENDRIMER-BIOADHESIVE POLYMER HYDROGEL NANOGLUE AND USE THEREOF” (The Johns Hopkins University, priority 2016, published 2026)", "assay_type_in_all_cases": "in vivo, rat", "key": {"corneal alkali burn": {"tested_on": "corneal alkali burn", "conditions": "for Estimated area of NV / CCT: mean±standard deviation; for Opacity score: median (inter-quartile range); for CCT: rat alkali burn, subconjunctival gel, 1.6 mg of Dex/eye", "description": "All procedures involving animals conformed with the IACUC research guidelines by the Association for Research in Vision and Ophthalmology Statement for the use of Animals in Ophthalmic and Vision Research and Johns Hopkins University. A total of 57 Lewis rats (7 to 8 weeks of age) were obtained from Harlan Laboratories Inc. (Frederick, MD). All animals weighed between 150 and 200 g, and they were housed at constant temperature (20±1° C.) and humidity (50±5%). They were fed standard rat chow and had access to water ad libitum. All procedures and tests were performed under general anesthesia with intramuscular injection of ketamine 0.9% (Bio-niche Pharma, Lake Forest, IL, USA)/xylazine 0.1% (Phoenix Pharmaceuticals, St. Joseph, MO, USA) and topical proparacaine 0.5% (Sandoz, Holzkirchen, Germany). Corneal alkali burn was generated by applying 0.5N NaOH on cornea. Briefly, sample discs SS-033 0.5 cm in diameter (WESCOR, Logan, Utah, USA) were cut in to 4 quadrants. The quadrant was soaked in 0.5N NaOH for 10 seconds and then placed on central cornea for 15 s. The burn area and the conjunctival sac were immediately irrigated with 30 mL of BSS solution using an eyedrop bottle.\nCorneal alkali burn was performed on rats as described in Example 7.\nAfter alkali burn, the animals were randomized for treatment in one of the following three groups: (i) Dendrimer-Dexamethasone conjugates entrapped in injectable, dendrimer-hyaluronic acid photocrosslinked gel with a minimal amount of free dexamethasone (D-Dex group, n=10), (ii) free dexamethasone in injectable, dendrimer-hyaluronic acid photocrosslinked gel (free-dex group, n=10), and (iii) no drug, only injectable, dendrimer-hyaluronic acid photocrosslinked gel, n=10. Both D-Dex and free-Dex groups were treated with equivalent Dex basis present in both D-Dex and free Dex formulations (1.6 mg of Dex/eye). […] The free dexamethasone group received a total of 1.6 mg of free dexamethasone. […] All forms of drugs were incorporated into injectable gel formulations (it is the same gel formulation as of example 4). The gel components are premixed and loaded in to the syringe and crosslinked to form gel using UV exposure. At the time of injection the components are in the form of gel) and injected subconjunctivally using 30-gauge, 0.5 cc insulin syringes.\nAnimals were assessed at baseline and at the following post-exposure time points: 24 hours, 72 hours, and 7 days. A subset of the animals was also followed up to 14 days.\nThe central corneal thickness (CCT) and stromal structure analysis were done using anterior chamber optical coherence tomography (OCT) (Bioptigen Envisu R-class OCT, Bioptigen, NC, USA).\nChanges in intraocular pressure (IOP) were measured using a handheld tonometer (Icare LAB tonometer, Icare, Finland). The settings R for rat were chosen and three individual measurements of IOP were made for each eye for accuracy.\nCorneal opacity was scored by grading the degree of transparency as previously reported by Larkin D F, et al., Clin Exp Immunol., 107:381-391 (1997). The estimated area of neovascularization (NV) was assessed by estimating the radial penetration of the neovascular vessels and their extent in degrees, and by assuming a mean corneal […] of 2.5 mm, so that the maximal area of NV was no more than 2.52π mm^2 (=19.63 mm^2)."}, "IL-6 mRNA": {"tested_on": "IL-6 mRNA", "experiment": "Cytokine mRNA expression in corneal tissue by RT-PCR: IL-6", "conditions": "POD7, normalized to healthy controls, mean±SEM", "description": "(§1) For cytokine expression analysis, the corneas (n=10, for each group) were snap frozen in liquid nitrogen and homogenized carefully into tissue powder using pre-cooled (in liquid nitrogen) porcelain mortar and pestles. The total RNA was purified with TRIzol reagent (Life Technologies, Grand Island, NY) following the manufacturer's instruction. 3 μg of total RNA was reverse-transcribed to cDNA using High-capacity cDNA Reverse Transcription System (Life Technologies) according to the manufacturer's instructions. qRT-PCR was performed with fast SYBR Green Master Mix (Life Technologies) by a StepOnePlus Real-Time PCR System (Life Technologies). Rat GAPDH was used to normalize the expression levels of target gene and calculated by the comparative cycle threshold Ct method (2^−(ΔΔCt))."}, "MCP-1 mRNA": {"tested_on": "MCP-1 mRNA", "experiment": "Cytokine mRNA expression in corneal tissue by RT-PCR: MCP-1", "description": "as §1"}}, "note": "Like-named read-outs stand apart in the source and are kept apart here."}
{"compound": "C[C@@H]1C[C@H]2[C@@H]3CCC4=CC(=O)C=C[C@]4(C)[C@@]3(F)[C@@H](O)C[C@]2(C)[C@@]1(O)C(=O)CO", "note": "[Free-Dex, Dexamethasone]", "values": [{"measurement": "Estimated area of NV", "setting": "corneal alkali burn; Baseline", "result": "0 ± 0", "unit": "mm^2"}, {"measurement": "Opacity score", "setting": "corneal alkali burn; Baseline, grade 0-4", "result": "0(0)"}, {"measurement": "CCT", "setting": "corneal alkali burn; Baseline", "result": "142.86 ± 8.68", "unit": "μm"}, {"measurement": "Estimated area of NV", "setting": "corneal alkali burn; POD1", "result": "0 ± 0", "unit": "mm^2"}, {"measurement": "Opacity score", "setting": "corneal alkali burn; POD1, grade 0-4", "result": "3(3)"}, {"measurement": "CCT", "setting": "corneal alkali burn; POD1", "result": "304.95 ± 87.23", "unit": "μm"}, {"measurement": "median opacity score", "setting": "corneal alkali burn; POD3, grade 0-4", "result": 3.5}, {"measurement": "Estimated area of NV", "setting": "corneal alkali burn; POD3", "result": "3.32 ± 1.65", "unit": "mm^2"}, {"measurement": "Opacity score", "setting": "corneal alkali burn; POD3, grade 0-4", "result": "3.5(1)"}, {"measurement": "CCT", "setting": "corneal alkali burn; POD3", "result": "357.71 ± 115.58", "unit": "μm"}, {"measurement": "Estimated area of NV", "setting": "corneal alkali burn; POD7", "result": "3.8 ± 2.89", "unit": "mm^2"}, {"measurement": "Opacity score", "setting": "corneal alkali burn; POD7, grade 0-4", "result": "1(1)"}, {"measurement": "CCT", "setting": "corneal alkali burn; POD7", "result": "229.57 ± 91.54", "unit": "μm"}, {"measurement": "mean area occupied by neo-vessels", "setting": "corneal alkali burn; POD7 as printed in text, spread not defined", "result": "3.32±0.34", "unit": "mm^2"}, {"measurement": "Estimated area of NV", "setting": "corneal alkali burn; POD14", "result": "43.32 ± 5.46", "unit": "mm^2"}, {"measurement": "Opacity score", "setting": "corneal alkali burn; POD14, grade 0-4", "result": "1(2)"}, {"measurement": "CCT", "setting": "corneal alkali burn; POD14", "result": "226.57 ± 63.67", "unit": "μm"}, {"measurement": "IL-6 mRNA levels", "setting": "IL-6 mRNA", "result": "3.0±0.3"}, {"measurement": "MCP-1 mRNA levels significantly lower compared to the positive controls", "setting": "MCP-1 mRNA; POD7, p=0.259", "result": "not true"}, {"measurement": "MCP-1 mRNA levels", "setting": "MCP-1 mRNA; POD14, corneal tissue, normalized to healthy controls, mean±SEM", "result": "15.4±3.22"}]}
